Where a SMILES comes first, the peptide text is derived from it. Bridges are numbered along the chain shown (N, C = ends). [ ]: non-standard residue; d: D form. The star is where a group is joined. ξ: configuration not given here. Phe(3-CF3) = N[C@@H](Cc1cccc(C(F)(F)F)c1)C(=O)O; Phe(4-CF3) = N[C@@H](Cc1ccc(C(F)(F)F)cc1)C(=O)O; Phe(4-COOH) = N[C@@H](Cc1ccc(C(=O)O)cc1)C(=O)O; Bip = N[C@@H](Cc1ccc(-c2ccccc2)cc1)C(=O)O; Phe(3-Me) = Cc1cccc(C[C@H](N)C(=O)O)c1; NH(CH2)12COOH = O=C(O)CCCCCCCCCCCCN*; Val(3-OH) = CC(C)(O)[C@H](N)C(=O)O; Cha = N[C@@H](CC1CCCCC1)C(=O)O; Cit = NC(=O)NCCC[C@H](N)C(=O)O; Thr(3ξ) = CC(O)[C@H](N)C(=O)O; Carboxymethyl = O=C(O)C*; NMeA = CN[C@@H](C)C(=O)O; Aun = NCCCCCCCCCCC(=O)O; Dab = NCC[C@H](N)C(=O)O; Nva = CCC[C@H](N)C(=O)O; Abu = CC[C@H](N)C(=O)O; AEEA = NCCOCCOCC(=O)O
Each compound was assayed against T1, PD-1/PD-L1 interaction (PE-labeled human PD-L1-Ig binding to Jurkat cell line over-expressing human PD-1) (Homo sapiens, UniProt Q15116) (assay: Jurkat-PD-1 Cell Binding High-Content Screening Assay (CBA)). Conditions: PE-labeled PD-L1-Ig 20 nM final, Jurkat-hPD-1 cells; read-out: Jurkat HPD1 PDL1 IC50.
T1 construct: expressed in transfected cells; host or cells: Jurkat
T1 sequence (Q15116 25-288): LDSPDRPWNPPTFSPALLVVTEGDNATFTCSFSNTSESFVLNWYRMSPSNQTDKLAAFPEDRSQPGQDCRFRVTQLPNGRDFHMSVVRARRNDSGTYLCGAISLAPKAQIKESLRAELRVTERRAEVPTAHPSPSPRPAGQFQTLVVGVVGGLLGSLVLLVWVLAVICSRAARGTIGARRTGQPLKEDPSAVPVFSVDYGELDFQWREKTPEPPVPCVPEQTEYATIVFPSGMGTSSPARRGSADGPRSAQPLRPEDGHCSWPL
In short: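 Compound is added first to the PD-1-expressing Jurkat cells and held 2 h at 37 °C in serum-containing DMEM. The fluorescent PD-L1 fusion follows at 20 nM final for 1 h. Fixed, Hoechst-stained cells are then imaged for bound label.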
For `CCC[C@@H]1NC(=O)CSC[C@@H](C(=O)N[C@@H](CCN)C(=O)NCCOCCOCC(=O)NCCCCCCCCCCC(=O)O)NC(=O)[C@H](CCC(=O)O)NC(=O)[C@H](CO)NC(=O)[C@H](CC2CCCCC2)NC(=O)[C@H](CCN)NC(=O)[C@@H](CC(C)C)NC(=O)[C@H](C)N(C)C(=O)[C@H](Cc2ccc(OCC(=O)O)cc2)NC(=O)[C@H](Cc2ccc(-c3ccccc3)cc2)NC(=O)[C@H](Cc2ccc(OCC(=O)O)cc2)NC(=O)[C@H](Cc2cccc(C)c2)NC(=O)[C@H](CC(=O)O)NC(=O)[C@H](Cc2ccc(C(=O)O)cc2)NC1=O` [Example 2561] ({CH2CO}-[Nva][Phe(4-COOH)]D[Phe(3-Me)]Y(Carboxymethyl)[Bip]Y(Carboxymethyl)[NMeA][dL][Dab][Cha]SEC[Dab][AEEA][Aun]-OH; thioether N-14), the IC50 was 24.1 nM.
`Cc1cccc(C[C@@H]2NC(=O)[C@H](CC(=O)O)NC(=O)[C@H](Cc3ccc(C(=O)O)cc3)NC(=O)[C@H](C(C)O)NC(=O)CSC[C@@H](C(=O)N[C@@H](CCN)C(=O)NCCOCCOCC(=O)NCCCCCCCCCCC(=O)O)NC(=O)[C@H](CO)NC(=O)[C@H](C(C)(C)O)NC(=O)[C@H](CC3CCCCC3)NC(=O)[C@H](CCN)NC(=O)[C@@H](CC(C)C)NC(=O)[C@H](C)N(C)C(=O)[C@H](Cc3ccc(C(=O)O)cc3)NC(=O)[C@H](Cc3ccc(-c4ccccc4)cc3)NC(=O)[C@H](Cc3ccc(C(=O)O)cc3)NC2=O)c1` (stereo partly drawn) [Example 2562] ({CH2CO}-[Thr(3ξ)][Phe(4-COOH)]D[Phe(3-Me)][Phe(4-COOH)][Bip][Phe(4-COOH)][NMeA][dL][Dab][Cha][Val(3-OH)]SC[Dab][AEEA][Aun]-OH; thioether N-14) showed an IC50 of 2.1 nM.
For `CC(=O)NCCCC[C@@H]1NC(=O)[C@H](C(C)(C)O)NC(=O)[C@H](CC2CCCCC2)NC(=O)[C@H](CCN)NC(=O)[C@@H](CC(C)C)NC(=O)[C@H](C)N(C)C(=O)[C@H](CCC(N)=O)NC(=O)[C@H](Cc2ccc(-c3ccccc3)cc2)NC(=O)[C@H](Cc2ccc(C(=O)O)cc2)NC(=O)[C@H](Cc2cccc(C)c2)NC(=O)[C@H](CC(=O)O)NC(=O)[C@H](Cc2ccc(OCC(=O)O)cc2)NC(=O)[C@H](Cc2ccc(OCC(=O)O)cc2)NC(=O)CSC[C@@H](C(=O)N[C@@H](CCN)C(=O)NCCCCCCCCCCCCC(=O)O)NC1=O` [Example 2563] ({CH2CO}-Y(Carboxymethyl)Y(Carboxymethyl)D[Phe(3-Me)][Phe(4-COOH)][Bip]Q[NMeA][dL][Dab][Cha][Val(3-OH)]K(Ac)C[Dab]-{NH(CH2)12COOH}; thioether N-14), the IC50 was 4.6 nM.
With `CC(=O)NCCCC[C@@H]1NC(=O)[C@H](C(C)(C)O)NC(=O)[C@H](CC2CCCCC2)NC(=O)[C@H](CCN)NC(=O)[C@@H](CC(C)C)NC(=O)[C@H](C)N(C)C(=O)[C@H](CCC(N)=O)NC(=O)[C@H](Cc2ccc(-c3ccccc3)cc2)NC(=O)[C@H](Cc2ccc(C(=O)O)cc2)NC(=O)[C@H](Cc2cccc(C(F)(F)F)c2)NC(=O)[C@H](CC(=O)O)NC(=O)[C@H](Cc2ccc(OCC(=O)O)cc2)NC(=O)[C@H](Cc2ccc(OCC(=O)O)cc2)NC(=O)CSC[C@@H](C(=O)N[C@@H](CCN)C(=O)NCCCCCCCCCCC(=O)O)NC1=O` [Example 2564] ({CH2CO}-Y(Carboxymethyl)Y(Carboxymethyl)D[Phe(3-CF3)][Phe(4-COOH)][Bip]Q[NMeA][dL][Dab][Cha][Val(3-OH)]K(Ac)C[Dab][Aun]-OH; thioether N-14) the IC50 was 1.1 nM.
`CC(=O)NCCCC[C@@H]1NC(=O)[C@H](C(C)(C)O)NC(=O)[C@H](CC2CCCCC2)NC(=O)[C@H](CCN)NC(=O)[C@@H](CC(C)C)NC(=O)[C@H](C)N(C)C(=O)[C@H](CCC(N)=O)NC(=O)[C@H](Cc2ccc(-c3ccccc3)cc2)NC(=O)[C@H](Cc2ccc(C(=O)O)cc2)NC(=O)[C@H](Cc2cccc(C(F)(F)F)c2)NC(=O)[C@H](CC(=O)O)NC(=O)[C@H](Cc2ccc(OCC(=O)O)cc2)NC(=O)[C@H](Cc2ccc(OCC(=O)O)cc2)NC(=O)CSC[C@@H](C(=O)N[C@@H](CCN)C(=O)NCCCCCCCCCCCCC(=O)O)NC1=O` [Example 2565] ({CH2CO}-Y(Carboxymethyl)Y(Carboxymethyl)D[Phe(3-CF3)][Phe(4-COOH)][Bip]Q[NMeA][dL][Dab][Cha][Val(3-OH)]K(Ac)C[Dab]-{NH(CH2)12COOH}; thioether N-14) showed an IC50 of 3.3 nM.
`CC(C)C[C@H]1NC(=O)[C@H](C)N(C)C(=O)[C@H](Cc2ccc(C(=O)O)cc2)NC(=O)[C@H](Cc2ccc(-c3ccccc3)cc2)NC(=O)[C@H](Cc2ccc(C(=O)O)cc2)NC(=O)[C@H](Cc2cccc(C(F)(F)F)c2)NC(=O)[C@H](CC(=O)O)NC(=O)[C@H](Cc2ccc(C(=O)O)cc2)NC(=O)[C@H](C(C)O)NC(=O)CSC[C@@H](C(=O)N[C@@H](CCN)C(=O)NCCCCCCCCCCC(=O)O)NC(=O)[C@H](C(C)O)NC(=O)[C@H](C(C)C)NC(=O)[C@H](CC2CCCCC2)NC(=O)[C@H](CCN)NC1=O` (stereo partly drawn) [Example 2566] ({CH2CO}-[Thr(3ξ)][Phe(4-COOH)]D[Phe(3-CF3)][Phe(4-COOH)][Bip][Phe(4-COOH)][NMeA][dL][Dab][Cha]V[Thr(3ξ)]C[Dab][Aun]-OH; thioether N-14) was tested, and the IC50 was 4.5 nM.
`CC(C)C[C@H]1NC(=O)[C@H](C)N(C)C(=O)[C@H](Cc2ccc(C(=O)O)cc2)NC(=O)[C@H](Cc2ccc(-c3ccccc3)cc2)NC(=O)[C@H](Cc2ccc(C(=O)O)cc2)NC(=O)[C@H](Cc2cccc(C(F)(F)F)c2)NC(=O)[C@H](CC(=O)O)NC(=O)[C@H](Cc2ccc(C(=O)O)cc2)NC(=O)[C@H](C(C)O)NC(=O)CSC[C@@H](C(=O)N[C@@H](CCN)C(=O)NCCCCCCCCCCC(=O)O)NC(=O)[C@H](CO)NC(=O)[C@H](C(C)(C)O)NC(=O)[C@H](CC2CCCCC2)NC(=O)[C@H](CCN)NC1=O` (stereo partly drawn) [Example 2567] ({CH2CO}-[Thr(3ξ)][Phe(4-COOH)]D[Phe(3-CF3)][Phe(4-COOH)][Bip][Phe(4-COOH)][NMeA][dL][Dab][Cha][Val(3-OH)]SC[Dab][Aun]-OH; thioether N-14) was tested, and the IC50 was 2.2 nM.
Work on `CC(C)C[C@H]1NC(=O)[C@H](C)N(C)C(=O)[C@H](Cc2ccc(C(=O)O)cc2)NC(=O)[C@H](Cc2ccc(-c3ccccc3)cc2)NC(=O)[C@H](Cc2ccc(C(=O)O)cc2)NC(=O)[C@H](Cc2cccc(C(F)(F)F)c2)NC(=O)[C@H](CC(=O)O)NC(=O)[C@H](Cc2ccc(C(=O)O)cc2)NC(=O)[C@H](C(C)O)NC(=O)CSC[C@@H](C(=O)N[C@@H](CCN)C(=O)NCCCCCCCCCCCCC(=O)O)NC(=O)[C@H](CO)NC(=O)[C@H](C(C)(C)O)NC(=O)[C@H](CC2CCCCC2)NC(=O)[C@H](CCN)NC1=O` (stereo partly drawn) [Example 2568] ({CH2CO}-[Thr(3ξ)][Phe(4-COOH)]D[Phe(3-CF3)][Phe(4-COOH)][Bip][Phe(4-COOH)][NMeA][dL][Dab][Cha][Val(3-OH)]SC[Dab]-{NH(CH2)12COOH}; thioether N-14) yielded an IC50 of 22.8 nM.
With `CC[C@@H]1NC(=O)CSC[C@@H](C(=O)N[C@@H](CCN)C(=O)NCCCCCCCCCCCCC(=O)O)NC(=O)[C@H](CO)NC(=O)[C@H](C(C)(C)O)NC(=O)[C@H](CC2CCCCC2)NC(=O)[C@H](CCN)NC(=O)[C@@H](CC(C)C)NC(=O)[C@H](C)N(C)C(=O)[C@H](Cc2ccc(C(=O)O)cc2)NC(=O)[C@H](Cc2ccc(-c3ccccc3)cc2)NC(=O)[C@H](Cc2ccc(C(=O)O)cc2)NC(=O)[C@H](Cc2cccc(C(F)(F)F)c2)NC(=O)[C@H](CC(=O)O)NC(=O)[C@H](Cc2ccc(C(=O)O)cc2)NC1=O` [Example 2569] ({CH2CO}-[Abu][Phe(4-COOH)]D[Phe(3-CF3)][Phe(4-COOH)][Bip][Phe(4-COOH)][NMeA][dL][Dab][Cha][Val(3-OH)]SC[Dab]-{NH(CH2)12COOH}; thioether N-14) the IC50 was 45.3 nM.
In the case of `CC(=O)NCCCC[C@@H]1NC(=O)[C@H](C(C)(C)O)NC(=O)[C@H](CC2CCCCC2)NC(=O)[C@H](CCN)NC(=O)[C@@H](CC(C)C)NC(=O)[C@H](C)N(C)C(=O)[C@H](CCCNC(N)=O)NC(=O)[C@H](Cc2ccc(-c3ccccc3)cc2)NC(=O)[C@H](Cc2ccc(C(=O)O)cc2)NC(=O)[C@H](Cc2cccc(C(F)(F)F)c2)NC(=O)[C@H](CC(=O)O)NC(=O)[C@H](Cc2ccc(OCC(=O)O)cc2)NC(=O)[C@H](Cc2ccc(OCC(=O)O)cc2)NC(=O)CSC[C@@H](C(=O)N[C@@H](CCN)C(=O)NCCCCCCCCCCC(=O)O)NC1=O` [Example 2570] ({CH2CO}-Y(Carboxymethyl)Y(Carboxymethyl)D[Phe(3-CF3)][Phe(4-COOH)][Bip][Cit][NMeA][dL][Dab][Cha][Val(3-OH)]K(Ac)C[Dab][Aun]-OH; thioether N-14), the IC50 is reported as 2.7 nM.
In the case of `Cc1cccc(C[C@@H]2NC(=O)[C@H](CC(=O)O)NC(=O)[C@H](Cc3ccc(C(F)(F)F)cc3)NC(=O)[C@H](C(C)O)NC(=O)CSC[C@@H](C(=O)N[C@@H](CCN)C(=O)NCCCCCCCCCCC(=O)O)NC(=O)[C@H](C(C)O)NC(=O)[C@H](C(C)C)NC(=O)[C@H](CC3CCCCC3)NC(=O)[C@H](CCN)NC(=O)[C@@H](CC(C)C)NC(=O)[C@H](C)N(C)C(=O)[C@H](Cc3ccc(C(=O)O)cc3)NC(=O)[C@H](Cc3ccc(-c4ccccc4)cc3)NC(=O)[C@H](Cc3ccc(C(=O)O)cc3)NC2=O)c1` (stereo partly drawn) [Example 2571] ({CH2CO}-[Thr(3ξ)][Phe(4-CF3)]D[Phe(3-Me)][Phe(4-COOH)][Bip][Phe(4-COOH)][NMeA][dL][Dab][Cha]V[Thr(3ξ)]C[Dab][Aun]-OH; thioether N-14), the IC50 is reported as 108 nM.
With `CC(C)C[C@H]1NC(=O)[C@H](C)N(C)C(=O)[C@H](Cc2ccc(C(=O)O)cc2)NC(=O)[C@H](Cc2ccc(-c3ccccc3)cc2)NC(=O)[C@H](Cc2ccc(C(=O)O)cc2)NC(=O)[C@H](Cc2cccc(C(F)(F)F)c2)NC(=O)[C@H](CC(=O)O)NC(=O)[C@H](Cc2ccc(C(=O)O)cc2)NC(=O)[C@H](C(C)O)NC(=O)CSC[C@@H](C(=O)N[C@@H](CCN)C(=O)NCCCCCCCCCCC(=O)O)NC(=O)[C@H](CCC(=O)O)NC(=O)[C@H](C(C)C)NC(=O)[C@H](CC2CCCCC2)NC(=O)[C@H](CCN)NC1=O` (stereo partly drawn) [Example 2572] ({CH2CO}-[Thr(3ξ)][Phe(4-COOH)]D[Phe(3-CF3)][Phe(4-COOH)][Bip][Phe(4-COOH)][NMeA][dL][Dab][Cha]VEC[Dab][Aun]-OH; thioether N-14) the IC50 was 11.5 nM.

Reference: patent US20260070945A1, “MACROCYCLIC IMMUNOMODULATORS” (Bristol-Myers Squibb Company, priority 2022, published 2026)
